Test results from patent publication US12173018B2, “Penicillin-binding protein inhibitors” (priority 2018, dated 2024).
In brackets after ≈: the same amount, converted by molar mass. Counter-ions that a name gives are not always drawn. Like-named read-outs stand apart in the source and are kept apart here.

Experiments:
[1] = tested on: engineered strain of Escherichia coli harboring CTX-M15; assay: microbe, parasite or virus in culture; format: cell-based; conditions: for MIC: Escherichia coli, read-out: Microbiological Activity (MIC in mg/L), E. coli DH5α/pLBII-CTX-M15, engineered strain producing CTX-M15
Method: (§1) Briefly, cryo-preserved bacterial cultures of challenge strains are streaked for isolation on appropriate agar medium, in this case Mueller Hinton II agar. Following incubation to allow growth of the colonies, plates are sealed with parafilm and stored refrigerated for up to two weeks. For preparation of assay inoculum and to ensure low variability, at least 5 colonies are picked from the agar plates with an inoculating loop and aseptically transferred to a culture tube containing 3 mL of Mueller-Hinton Broth (supplemented with divalent cations to required levels based on Manufacturers' certification). The broth culture is grown for 3-5 hours at 37° C. with shaking at 200 rpm. Meanwhile, 2-fold serial dilutions of test compounds are conducted in a 96 well plate with a final volume of 75 μL per well at 2-fold the final desired concentration. After the dilution plates are set up the growing cultures are then diluted in a cuvette containing MH II broth and the optical density is measured at 600 nm. The Inoculum is diluted such that 75 μL of this culture in Mueller-Hinton Broth results in a starting bacterial concentration of 5×10^5 CFU/mL when added to the dilution plates. The plates are incubated for 16-20 hours at 37° C. The MIC values are read visually as the lowest concentration well with no bacterial growth.
To determine if test compounds were affected by CTX-M15, the most abundant extended spectrum […] in clinical settings worldwide, the inhibition of the growth of an engineered strain of Escherichia coli harboring CTX-M15 was tested. This strain was constructed by cloning the gene encoding CTX-M15 into the NdeI and BamHI restriction endonuclease sites of plasmid pLBII, placing the gene(s) under the control of the Lac promoter. The constructed expression plasmid for CTX-M15 was used to transform competent E. coli DH5α cells to make the engineered strain, including an empty pLBII vector control strain. The classic cell based broth microdilution MIC assay was employed as described above with the addition of control antibiotics, known to be degraded by β-lactamases (Ceftazidime, piperacillin and piperacillin+tazobactam).

[2] = biological target: E. coli PBP3 (Escherichia coli (strain K12), UniProt P0AD68); assay: E. coli PBP3 Bocillin-FL fluorescence polarization competition binding assay
Procedure, shortened: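 Polarization at 490/520 nm was monitored for 60 minutes in pH 8.0 Hepes buffer containing 300 mM NaCl and 5% glycerol, with compound spanning 0–1000 μM.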

[3] = tested on: E. coli ATCC 25922; assay: Broth microdilution MIC, E. coli ATCC 25922; format: cell-based; conditions: Escherichia coli, ATCC25922; E. coli ATCC 25922, broth microdilution; read-out: MIC E. coli 25922
Method: (§2) To determine the ability of test compounds to potentiate the inhibition of the growth of bacterial strains, classic cell based broth microdilution minimum inhibitory concentration (MIC) assays were employed. MIC assays are performed according to CLSI methods except where otherwise noted (CLSI, 2011 and CLSI, 2009). The reference type strain E. coli ATCC 25922, the wild-type parent strain E. coli AG100, the hyper-permeable E. coli 901C and E. coli D22 and the E. coli AG100A strain lacking the acrAB efflux pump encoding genes were used to determine the ability of the PBP inhibitors to penetrate the outer membrane of gram-negative bacteria and inhibit bacterial growth. […] The P. aeruginosa PAO1, P. aeruginosa ATCC 27853 and A. baumannii ATCC 19606, along with the hyper-permeable P. aeruginosa ATCC 35151 and an engineered efflux pump-compromised strain of P. aeruginosa (ΔmexAB-oprM) were used to determine the ability of PBP inhibitors to penetrate the outer membrane of P. aeruginosa and A. baumannii and assess antibacterial activity against these important gram-negative organisms.
as §1

[4] = tested on: E. coli AG100; assay: Broth microdilution MIC, E. coli AG100 (wild-type parent); format: cell-based; conditions: Escherichia coli; wild-type parent E. coli AG100, broth microdilution; read-out: MIC E. coli AG100
Method: To determine the ability of test compounds to potentiate the inhibition of the growth of bacterial strains, classic cell based broth microdilution minimum inhibitory concentration (MIC) assays were employed.
as §1

[5] = tested on: K. pneumoniae 848844; assay: microbe, parasite or virus in culture; format: cell-based, Klebsiella pneumoniae; conditions: Klebsiella pneumoniae; K. pneumoniae 848844 producing SHV-11 and KPC-2; read-out: MIC K. pneumoniae 848844
Method: as §2, §1

[6] = tested on: K. pneumoniae UMM; assay: microbe, parasite or virus in culture; format: cell-based; conditions: Klebsiella pneumoniae; K. pneumoniae UMM producing SHV-5 and KPC-2; read-out: MIC K. pneumoniae UMM
Method: as §2, §1

[7] = tested on: E. coli AG100A; assay: microbe, parasite or virus in culture; format: cell-based; conditions: Escherichia coli, read-out: MIC E. coli AG100A
Method: as §2, §1

[8] = tested on: E. coli D22; assay: microbe, parasite or virus in culture; format: cell-based; conditions: Escherichia coli; hyper-permeable E. coli D22, broth microdilution; read-out: MIC E. coli D22
Method: as §2, §1

[9] = tested on: K. pneumoniae SI-117; assay: microbe, parasite or virus in culture; format: cell-based; conditions: Klebsiella pneumoniae, SI117, read-out: MIC K. pneumoniae SI-117
Method: as §2, §1

[10] = tested on: E. coli 901C; assay: microbe, parasite or virus in culture; format: cell-based; conditions: Escherichia coli; hyper-permeable E. coli 901C, broth microdilution; read-out: MIC E. coli 901C
Method: as §2, §1

[11] = fluorescence polarization competition binding with Bocillin-FL, read-out: E. coli K12 PBP3 Potency

Chain of E. coli PBP3 (P0AD68 whole entry): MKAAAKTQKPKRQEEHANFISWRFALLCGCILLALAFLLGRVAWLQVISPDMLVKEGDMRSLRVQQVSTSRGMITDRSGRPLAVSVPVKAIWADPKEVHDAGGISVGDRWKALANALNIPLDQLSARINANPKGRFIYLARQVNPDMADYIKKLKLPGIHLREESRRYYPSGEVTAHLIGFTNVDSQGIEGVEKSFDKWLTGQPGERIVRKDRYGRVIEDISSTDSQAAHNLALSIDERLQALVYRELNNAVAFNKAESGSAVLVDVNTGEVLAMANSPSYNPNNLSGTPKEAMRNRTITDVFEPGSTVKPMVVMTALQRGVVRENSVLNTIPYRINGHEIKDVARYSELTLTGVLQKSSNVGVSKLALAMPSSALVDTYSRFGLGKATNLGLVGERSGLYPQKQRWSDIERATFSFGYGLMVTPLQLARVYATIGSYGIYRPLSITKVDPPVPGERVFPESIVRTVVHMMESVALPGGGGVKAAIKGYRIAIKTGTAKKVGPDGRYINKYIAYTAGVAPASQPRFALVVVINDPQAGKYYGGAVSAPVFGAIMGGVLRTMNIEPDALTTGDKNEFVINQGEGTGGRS

SMILES: CCN1CCN(C(=O)NC(C(=O)N[C@H]2Cc3cccc(C(=O)O)c3OB2O)c2c(C)n[nH]c2C)C(=O)C1=O (stereo partly drawn) [Example 54, (3R)-3-(2-(3,5-dimethyl-1H-pyrazol-4-yl)-2-(4-ethyl-2,3-dioxopiperazine-1-carboxamido)acetamido)-2-hydroxy-3,4-dihydro-2H-benzo[e][1,2]oxaborinine-8-carboxylic acid, trifluoroacetic acid salt]
- MIC [1]: 128 to 256 mg/L
- EC50 [2]: 30 to 500 µM

SMILES: CCN1CCN(C(=O)NC(C(=O)N[C@H]2Cc3cccc(C(=O)O)c3OB2O)C2CCNC2)C(=O)C1=O (stereo partly drawn) [Example 55, (3R)-3-(2-(4-ethyl-2,3-dioxopiperazine-1-carboxamido)-2-(pyrrolidin-3-yl)acetamido)-2-hydroxy-3,4-dihydro-2H-benzo[e][1,2]oxaborinine-8-carboxylic acid, trifluoroacetic acid salt]
- MIC [1]: 128 to 256 mg/L
- EC50 [2, 11]: > 500 µM

SMILES: CCN1CCN(C(=O)NC(C(=O)N[C@H]2Cc3cccc(C(=O)O)c3OB2O)C2CCN(CC(N)=O)C2)C(=O)C1=O (stereo partly drawn) [Example 57, (3R)-3-(2-(1-(2-amino-2-oxoethyl)pyrrolidin-3-yl)-2-(4-ethyl-2,3-dioxopiperazine-1-carboxamido)acetamido)-2-hydroxy-3,4-dihydro-2H-benzo[e][1,2]oxaborinine-8-carboxylic acid, trifluoroacetic acid salt]
- MIC [1]: 128 to 256 mg/L
- EC50 [2, 11]: > 500 µM

SMILES: O=C(O)c1cccc2c1OB(O)[C@@H](NC(=O)C(NC(=O)c1c[nH]c3cccnc3c1=O)c1ccc(O)c(O)c1Cl)C2 (stereo partly drawn) [Example 59, (3R)-3-(2-(2-chloro-3,4-dihydroxyphenyl)-2-(4-oxo-1,4-dihydro-1,5-naphthyridine-3-carboxamido)acetamido)-2-hydroxy-3,4-dihydro-2H-benzo[e][1,2]oxaborinine-8-carboxylic acid]
- MIC [1]: 128 to 256 mg/L (≈ 221 to 442 µM)

SMILES: CCN1CCN(C(=O)NC(C(=O)N[C@H]2Cc3cccc(C(=O)O)c3OB2O)c2ccc(N3CCOCC3)cc2)C(=O)C1=O (stereo partly drawn) [Example 61, (3R)-3-(2-(4-ethyl-2,3-dioxopiperazine-1-carboxamido)-2-(4-morpholinophenyl)acetamido)-2-hydroxy-3,4-dihydro-2H-benzo[e][1,2]oxaborinine-8-carboxylic acid]
- MIC [1]: 128 to 256 mg/L (≈ 216 to 431 µM)

SMILES: CCN1CCN(C(=O)N[C@@H](C(=O)N[C@H]2Cc3cccc(C(=O)O)c3OB2O)C2(CO)CC2)C(=O)C1=O [Example 62, (R)-3-((R)-2-(4-ethyl-2,3-dioxopiperazine-1-carboxamido)-2-(1-(hydroxymethyl)cyclopropyl)acetamido)-2-hydroxy-3,4-dihydro-2H-benzo[e][1,2]oxaborinine-8-carboxylic acid]
- MIC [1]: 32 to 64 mg/L (≈ 63.7 to 127 µM)

SMILES: CCN1CCN(C(=O)N[C@@H](C(=O)N[C@H]2Cc3cccc(C(=O)O)c3OB2O)[C@@H](C)OCC(N)=O)C(=O)C1=O [Example 66, (R)-3-((2R,3R)-3-(2-amino-2-oxoethoxy)-2-(4-ethyl-2,3-dioxopiperazine-1-carboxamido)butanamido)-2-hydroxy-3,4-dihydro-2H-benzo[e][1,2]oxaborinine-8-carboxylic acid]
- MIC [1]: 32 to 64 mg/L (≈ 60 to 120 µM)
- EC50 [2]: 30 to 500 µM

SMILES: CCN1CCN(C(=O)N[C@H](CNS(=O)(=O)C(F)(F)F)C(=O)N[C@H]2Cc3cccc(C(=O)O)c3OB2O)C(=O)C1=O [Example 75, (R)-3-((R)-2-(4-ethyl-2,3-dioxopiperazine-1-carboxamido)-3-((trifluoromethyl)sulfonamido)propanamido)-2-hydroxy-3,4-dihydro-2H-benzo[e][1,2]oxaborinine-8-carboxylic acid]
- MIC [1]: 128 to 256 mg/L (≈ 216 to 431 µM)
- EC50 [2, 11]: > 500 µM

SMILES: CCN1CCN(C(=O)NC(C(=O)N[C@H]2Cc3cccc(C(=O)O)c3OB2O)C(CO)CNS(N)(=O)=O)C(=O)C1=O (stereo partly drawn) [Example 79, (3R)-3-(2-(4-ethyl-2,3-dioxopiperazine-1-carboxamido)-4-hydroxy-3-((sulfamoylamino)methyl)butanamido)-2-hydroxy-3,4-dihydro-2H-benzo[e][1,2]oxaborinine-8-carboxylic acid]
- MIC [1]: 32 to 64 mg/L (≈ 54.8 to 110 µM)

SMILES: CCN1CCN(C(=O)NC(C(=O)N[C@H]2Cc3cccc(C(=O)O)c3OB2O)C(CCl)CNS(N)(=O)=O)C(=O)C1=O (stereo partly drawn) [Example 80, (3R)-3-(4-chloro-2-(4-ethyl-2,3-dioxopiperazine-1-carboxamido)-3-((sulfamoylamino)methyl)butanamido)-2-hydroxy-3,4-dihydro-2H-benzo[e][1,2]oxaborinine-8-carboxylic acid]
- MIC [1]: 128 to 256 mg/L (≈ 212 to 425 µM)

SMILES: CCN1CCN(C(=O)N[C@H](CNS(C)(=O)=O)C(=O)N[C@H]2Cc3cccc(C(=O)O)c3OB2O)C(=O)C1=O [Example 83, (R)-3-((R)-2-(4-ethyl-2,3-dioxopiperazine-1-carboxamido)-3-(methylsulfonamido)propanamido)-2-hydroxy-3,4-dihydro-2H-benzo[e][1,2]oxaborinine-8-carboxylic acid]
- MIC [1]: 32 to 64 mg/L (≈ 59.3 to 119 µM)
- EC50 [2, 11]: > 500 µM

SMILES: NCCN1CCN(C(=O)N[C@H](C(=O)N[C@H]2Cc3cccc(C(=O)O)c3OB2O)c2ccc(O)c(O)c2Cl)C(=O)C1=O [Example 221, (R)-3-((S)-2-(4-(2-aminoethyl)-2,3-dioxopiperazine-1-carboxamido)-2-(2-chloro-3,4-dihydroxyphenyl)acetamido)-2-hydroxy-3,4-dihydro-2H-benzo[e][1,2]oxaborinine-8-carboxylic acid]
- MIC [3]: > 128 µg/mL
- MIC [4]: 8 to 16 µg/mL
- EC50 [2]: 30 to 500 µM
- MIC [5]: 32 to 64 µg/mL
- MIC [6]: 8 to 16 µg/mL
- MIC [7]: 8 to 16 µg/mL
- MIC [8]: 8 to 16 µg/mL
- MIC [9]: 32 to 64 µg/mL
- MIC [10]: 8 to 16 µg/mL

SMILES: NCCN1CCN(C(=O)N[C@H](C(=O)N[C@H]2Cc3cccc(C(=O)O)c3OB2O)c2ncc(O)cc2F)C(=O)C1=O [Example 226, (R)-3-((S)-2-(4-(2-aminoethyl)-2,3-dioxopiperazine-1-carboxamido)-2-(3-fluoro-5-hydroxypyridin-2-yl)acetamido)-2-hydroxy-3,4-dihydro-2H-benzo[e][1,2]oxaborinine-8-carboxylic acid]
- MIC [3]: > 128 µg/mL
- MIC [4]: 32 to 64 µg/mL
- EC50 [2]: 30 to 500 µM
- MIC [5]: > 128 µg/mL
- MIC [6]: 32 to 64 µg/mL
- MIC [7]: 8 to 16 µg/mL
- MIC [8]: 8 to 16 µg/mL
- MIC [9]: > 128 µg/mL
- MIC [10]: 2 to 4 µg/mL

SMILES: CC(C)(O/N=C(\C(=O)N[C@@H]1C(=O)N2C(C(=O)[O-])=C(C[n+]3ccccc3)CS[C@H]12)c1csc(N)n1)C(=O)O [ceftazidime, reference compound]
- MIC in CTX-M15 producer compared with parent strain with empty pLBII plasmid ([1]; engineered E. coli DH5α with CTX-M15 vs empty vector control): weaker MICs in the CTX-M15 producer
- Microbiological Activity (MIC in mg/L), E. coli DH5α/pLBII-CTX-M15 ([1]; engineered strain producing CTX-M15): D (D represents an MIC from 8 to 16 μg/mL)
